This experiment concerns MCH receptors. Nature of the experiment: MCH receptor activity class (method not given). The following applies: activity class 1-3: percent of control at 10^-7 M or IC50.

Structures are written as SMILES.

For the compound `Cc1c(C)c(C)c(CNC2CCC(Nc3nccc(N(C)C)n3)CC2)c(C)c1C` (centres unmarked) [compound 1519], the class is on record as 3 (Class 3 The value of percent of control at 10^−7 M was more than 60% or the value of IC50 was more than 200 nM.).

Turning to `CCOc1cccc(CN[C@H]2CC[C@@H](Nc3nccc(N(C)C)n3)CC2)c1` [compound 1520], the class was 3 (Class 3 The value of percent of control at 10^−7 M was more than 60% or the value of IC50 was more than 200 nM.).

For the compound `CN(C)c1ccnc(N[C@H]2CC[C@@H](NC[C@@H](COCc3ccccc3)OCc3ccccc3)CC2)n1` [compound 1521], the class is 3 (Class 3 The value of percent of control at 10^−7 M was more than 60% or the value of IC50 was more than 200 nM.).

Regarding `COc1cc2ccccc2cc1CN[C@H]1CC[C@@H](Nc2nccc(N(C)C)n2)CC1` [compound 1522], the class is on record as 3 (Class 3 The value of percent of control at 10^−7 M was more than 60% or the value of IC50 was more than 200 nM.). In the case of `Cc1cccc(N(CCC#N)CCN[C@H]2CC[C@@H](Nc3nccc(N(C)C)n3)CC2)c1` [compound 1523] it was 3 (Class 3 The value of percent of control at 10^−7 M was more than 60% or the value of IC50 was more than 200 nM.).

Consider `CN(C)c1ccnc(N[C@H]2CC[C@@H](NCCN(CCC#N)c3ccccc3)CC2)n1` [compound 1524], for which the class is 3 (Class 3 The value of percent of control at 10^−7 M was more than 60% or the value of IC50 was more than 200 nM.). In the case of `COc1ccc(CCCCNC[C@H]2CC[C@@H](Nc3nccc(N(C)C)n3)CC2)cc1` [compound 1525], the class is recorded as 3 (Class 3 The value of percent of control at 10^−7 M was more than 60% or the value of IC50 was more than 200 nM.). In the case of `CN(C)c1ccnc(N[C@H]2CC[C@@H](CNCCCCCCc3ccccc3)CC2)n1` [compound 1526], the class is reported as 3 (Class 3 The value of percent of control at 10^−7 M was more than 60% or the value of IC50 was more than 200 nM.). In the case of `Cc1cc(C)c(CCNC[C@H]2CC[C@@H](Nc3nccc(N(C)C)n3)CC2)c(C)c1` [compound 1527] it was 3 (Class 3 The value of percent of control at 10^−7 M was more than 60% or the value of IC50 was more than 200 nM.); in that of `CN(C)c1ccnc(N[C@H]2CC[C@@H](CNCCCCCCCCc3ccccc3)CC2)n1` [compound 1528], 3 (Class 3 The value of percent of control at 10^−7 M was more than 60% or the value of IC50 was more than 200 nM.). In the case of `CN(C)c1ccnc(N[C@H]2CC[C@@H](CNCCc3ccc(C(C)(C)C)cc3)CC2)n1` [compound 1529] it was 3 (Class 3 The value of percent of control at 10^−7 M was more than 60% or the value of IC50 was more than 200 nM.); in that of `CN(C)c1ccnc(N[C@H]2CC[C@@H](CNCCCC#Cc3ccccc3)CC2)n1` [compound 1530], 3 (Class 3 The value of percent of control at 10^−7 M was more than 60% or the value of IC50 was more than 200 nM.); in that of `COc1ccccc1CCNC[C@H]1CC[C@@H](Nc2nccc(N(C)C)n2)CC1` [compound 1531], 3 (Class 3 The value of percent of control at 10^−7 M was more than 60% or the value of IC50 was more than 200 nM.). In the case of `CN(C)c1ccnc(N[C@H]2CC[C@@H](CNCCCOc3ccccc3)CC2)n1` [compound 1532] it was 3 (Class 3 The value of percent of control at 10^−7 M was more than 60% or the value of IC50 was more than 200 nM.); in that of `CN(C)c1ccnc(N[C@H]2CC[C@@H](CNCc3c(F)c(F)cc(F)c3F)CC2)n1` [compound 1533], 3 (Class 3 The value of percent of control at 10^−7 M was more than 60% or the value of IC50 was more than 200 nM.); in that of `CN(C)c1ccnc(N[C@H]2CC[C@@H](CNCc3cc(Cl)ccc3Cl)CC2)n1` [compound 1534], 3 (Class 3 The value of percent of control at 10^−7 M was more than 60% or the value of IC50 was more than 200 nM.).

Turning to `COc1ccc(Cl)cc1CNC[C@H]1CC[C@@H](Nc2nccc(N(C)C)n2)CC1` [compound 1535], the class is on record as 3 (Class 3 The value of percent of control at 10^−7 M was more than 60% or the value of IC50 was more than 200 nM.).

Turning to `COc1cc(Cl)ccc1CNC[C@H]1CC[C@@H](Nc2nccc(N(C)C)n2)CC1` [compound 1536], the class is 3 (Class 3 The value of percent of control at 10^−7 M was more than 60% or the value of IC50 was more than 200 nM.). For the compound `Cc1ccc(CNC[C@H]2CC[C@@H](Nc3nccc(N(C)C)n3)CC2)cc1I` [compound 1537], the class is listed as 3 (Class 3 The value of percent of control at 10^−7 M was more than 60% or the value of IC50 was more than 200 nM.). With `C[C@@H](CNC[C@H]1CC[C@@H](Nc2nccc(N(C)C)n2)CC1)N(Cc1ccccc1)Cc1ccccc1` [compound 1538], the class is listed as 3 (Class 3 The value of percent of control at 10^−7 M was more than 60% or the value of IC50 was more than 200 nM.).

Take `CN(C)c1cc(N[C@H]2CC[C@@H](NC(=O)OCCOCc3ccccc3)CC2)nc2ccccc12` [compound 1539]: the class is recorded as 3 (Class 3 The value of percent of control at 10^−7 M was more than 60% or the value of IC50 was more than 200 nM.). As for `CN(C)c1cc(N[C@H]2CC[C@@H](NC(=O)OCC(C)(C)C)CC2)nc2ccccc12` [compound 1540], the figure is 3 (Class 3 The value of percent of control at 10^−7 M was more than 60% or the value of IC50 was more than 200 nM.); as for `COc1cc(COC(=O)NC2CCC(Nc3cc(N(C)C)c4ccccc4n3)CC2)c([N+](=O)[O-])cc1OC` (centres unmarked) [compound 1541, “[4-(4-Dimethylamino-quinolin-2-ylamino)-cyclohexyl]-carbamic acid 4,5-dimethoxy-2-nitro-benzyl ester], 2 (Class 2: The value of percent of control at 10^−7 M was from 40% to 60% or the value of IC′50 was from 50 nM to 200 nM.). In the case of `CN(C)c1cc(N[C@H]2CC[C@@H](NC(=O)Oc3cccc(C(F)(F)F)c3)CC2)nc2ccccc12` [compound 1542] it was 3 (Class 3 The value of percent of control at 10^−7 M was more than 60% or the value of IC50 was more than 200 nM.); in that of `CN(C)c1cc(N[C@H]2CC[C@@H](NC(=O)Oc3ccc(Br)cc3)CC2)nc2ccccc12` [compound 1543], 3 (Class 3 The value of percent of control at 10^−7 M was more than 60% or the value of IC50 was more than 200 nM.); in that of `COc1ccccc1OC(=O)N[C@H]1CC[C@@H](Nc2cc(N(C)C)c3ccccc3n2)CC1` [compound 1544], 3 (Class 3 The value of percent of control at 10^−7 M was more than 60% or the value of IC50 was more than 200 nM.). As for `COCCOC(=O)N[C@H]1CC[C@@H](Nc2cc(N(C)C)c3ccccc3n2)CC1` [compound 1545], the figure is 3 (Class 3 The value of percent of control at 10^−7 M was more than 60% or the value of IC50 was more than 200 nM.). Regarding `CCCCCCCCOC(=O)N[C@H]1CC[C@@H](Nc2cc(N(C)C)c3ccccc3n2)CC1` [compound 1546], the class was 3 (Class 3 The value of percent of control at 10^−7 M was more than 60% or the value of IC50 was more than 200 nM.). As for `CCOC(=O)N[C@H]1CC[C@@H](Nc2cc(N(C)C)c3ccccc3n2)CC1` [compound 1547], the figure is 3 (Class 3 The value of percent of control at 10^−7 M was more than 60% or the value of IC50 was more than 200 nM.); as for `CN(C)c1cc(NC2CCC(NC(=O)OCc3ccc([N+](=O)[O-])cc3)CC2)nc2ccccc12` (centres unmarked) [compound 1548], 3 (Class 3 The value of percent of control at 10^−7 M was more than 60% or the value of IC50 was more than 200 nM.). As for `CN(C)c1cc(N[C@H]2CC[C@@H](NC(=O)Oc3ccc4ccccc4c3)CC2)nc2ccccc12` [compound 1549], the figure is 3 (Class 3 The value of percent of control at 10^−7 M was more than 60% or the value of IC50 was more than 200 nM.); as for `C=CCOC(=O)N[C@H]1CC[C@@H](Nc2cc(N(C)C)c3ccccc3n2)CC1` [compound 1550], 3 (Class 3 The value of percent of control at 10^−7 M was more than 60% or the value of IC50 was more than 200 nM.). As for `CN(C)c1cc(NC2CCC(NC(=O)OCc3ccccc3)CC2)nc2ccccc12` (centres unmarked) [compound 1551], the figure is 3 (Class 3 The value of percent of control at 10^−7 M was more than 60% or the value of IC50 was more than 200 nM.); as for `CN(C)c1cc(N[C@H]2CC[C@@H](NC(=O)Oc3ccccc3)CC2)nc2ccccc12` [compound 1552], 3 (Class 3 The value of percent of control at 10^−7 M was more than 60% or the value of IC50 was more than 200 nM.); as for `CC(C)[C@@H]1CC[C@@H](C)C[C@H]1OC(=O)N[C@H]1CC[C@@H](Nc2cc(N(C)C)c3ccccc3n2)CC1` [compound 1553], 3 (Class 3 The value of percent of control at 10^−7 M was more than 60% or the value of IC50 was more than 200 nM.). In the case of `Cc1ccc(OC(=O)N[C@H]2CC[C@@H](Nc3cc(N(C)C)c4ccccc4n3)CC2)cc1` [compound 1554], the class is reported as 3 (Class 3 The value of percent of control at 10^−7 M was more than 60% or the value of IC50 was more than 200 nM.). In the case of `COC(=O)N[C@H]1CC[C@@H](Nc2cc(N(C)C)c3ccccc3n2)CC1` [compound 1555], the class was 3 (Class 3 The value of percent of control at 10^−7 M was more than 60% or the value of IC50 was more than 200 nM.). With `CN(C)c1cc(N[C@H]2CC[C@@H](NC(=O)OCc3ccccc3Cl)CC2)nc2ccccc12` [compound 1556], the class was 3 (Class 3 The value of percent of control at 10^−7 M was more than 60% or the value of IC50 was more than 200 nM.). As for `CN(C)c1cc(N[C@H]2CC[C@@H](NC(=O)OCC3c4ccccc4-c4ccccc43)CC2)nc2ccccc12` [compound 1557], the figure is 3 (Class 3 The value of percent of control at 10^−7 M was more than 60% or the value of IC50 was more than 200 nM.); as for `CN(C)c1cc(N[C@H]2CC[C@@H](NC(=O)OCC(Cl)(Cl)Cl)CC2)nc2ccccc12` [compound 1558], 3 (Class 3 The value of percent of control at 10^−7 M was more than 60% or the value of IC50 was more than 200 nM.); as for `CN(C)c1cc(N[C@H]2CC[C@@H](CNC(=O)OCCOCc3ccccc3)CC2)nc2ccccc12` [compound 1559], 3 (Class 3 The value of percent of control at 10^−7 M was more than 60% or the value of IC50 was more than 200 nM.).
